Assay results: patent publication US12492173B2, “Herbicidal substituted N-tetrazolyl aryl carboxamides” (Bayer Aktiengesellschaft, priority 2019, dated 2025)

Tests used:
Assay type in all cases: in vivo
[1] = system: Stellaria media; experiment: Post-emergence herbicidal action, STEME; parameters: key: % herbicidal action vs untreated; 100 = plants died, 0 = like control
Summary of the method: (§1)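 Percent herbicidal effect was judged by eye against untreated controls around 3 weeks after foliar treatment, where 100% meant dead plants. Spraying took place at the one-leaf stage using wettable powder or emulsion concentrate diluted in water (600 to 800 l/ha) with added wetting agent at 0.2%.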

[2] = system: Echinochloa crus-galli; experiment: Post-emergence herbicidal action, ECHCG; parameters: key: % herbicidal action vs untreated; 100 = plants died, 0 = like control
Summary of the method: as §1

[3] = system: Amaranthus retroflexus; experiment: Pre-emergence herbicidal action, AMARE; settings: dosage 320 g/ha, scored visually after 3 weeks vs untreated controls (100% = plants have died)
Summary of the method: (§2)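 Greenhouse pre-emergence test: formulated compound (WP or EC) applied in water to the soil covering sown seeds, 600–800 l/ha, 0.2% wetting agent. Scored visually in percent at 3 weeks versus untreated plants.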

[4] = system: Veronica persica; experiment: Pre-emergence herbicidal action, VERPE; parameters: key to Herbicidal action against VERPE: % activity: 100 = plants have died, 0 = like control plants; settings: for herbicidal activity VERPE: dosage 320 g/ha, scored visually after 3 weeks vs untreated controls (100% = plants have died)
Summary of the method: as §2

[5] = system: Polygonum convolvulus; experiment: Pre-emergence herbicidal action, POLCO; settings: for herbicidal activity POLCO: dosage 320 g/ha, scored visually after 3 weeks vs untreated controls (100% = plants have died)
Summary of the method: as §2

[6] = system: Pharbitis purpurea; experiment: Post-emergence herbicidal action, PHBPU
Summary of the method: as §1

[7] = system: Setaria viridis; experiment: Pre-emergence herbicidal action, SETVI; parameters: key to Herbicidal action against SETVI: % activity: 100 = plants have died, 0 = like control plants; settings: for herbicidal activity SETVI: dosage 320 g/ha, scored visually after 3 weeks vs untreated controls (100% = plants have died)
Summary of the method: as §2

[8] = comparative experiment, 20 g of a.i./ha

Compound	herbicidal action STEME ([1]; Dosage 80 g/ha)	herbicidal action ECHCG ([2]; Dosage 80 g/ha)	herbicidal activity AMARE [3] [%]	herbicidal activity VERPE [4] [%]	herbicidal activity POLCO [5] [%]	herbicidal action PHBPU ([6]; Dosage 80 g/ha)	herbicidal activity SETVI [7] [%]	herbicidal action STEME ([1]; post-emergence, dosage 80 g/ha) [%]	herbicidal action ECHCG ([2]; post-emergence, dosage 80 g/ha) [%]	herbicidal action PHBPU ([6]; post-emergence, dosage 80 g/ha) [%]	Herbicidal action against SETVI [7, 8]	Herbicidal action against VERPE [4, 8]	Herbicidal action against STEME ([1]; post-emergence, dosage 80 g/ha)	Herbicidal action against ECHCG ([2]; post-emergence, dosage 80 g/ha)	Herbicidal action against POLCO [5, 8]	Herbicidal action against PHBPU ([6]; post-emergence, dosage 80 g/ha)
CCn1nnnc1NC(=O)c1ccc(C(F)(F)F)c(CS(C)(=O)=O)c1SC [Example 2-163]	100	100	100	100	100	90	100	–	–	–	–	–	–	–	–	–
Cn1nnnc1NC(=O)c1ccc(C(F)(F)F)c(C[S+](C)[O-])c1Br (centres unmarked) [Example 1-381]	–	–	100	100	90	–	100	100	90	100	80	–	–	–	–	–
Cc1c(C(=O)Nc2nnnn2C)ccc(C(F)(F)F)c1CS(C)(=O)=O [Example 1-85]	100	90	100	100	90	100	100	–	–	–	–	–	–	–	–	–
CCCn1nnnc1NC(=O)c1ccc(C(F)(F)F)c(CSC)c1OC [Example 3-134]	100	100	100	100	80	100	100	–	–	–	–	–	–	–	–	–
CCn1nnnc1NC(=O)c1ccc(C(F)(F)F)c(CS(C)(=O)=O)c1Br [Example 2-382]	100	90	100	100	90	100	100	–	–	–	–	–	–	–	–	–
Cn1nnnc1NC(=O)c1ccc(C(F)(F)F)c(CS(C)(=O)=O)c1Br [Example 1-382, 2-bromo-3-[(methylsulfonyl)methyl]-N-(1-methyl-1H-tetrazol-5-yl)-4-(trifluoromethyl)benzamide]	100	90	100	100	90	100	100	–	–	–	–	100	–	–	–	–
Cc1c(C(=O)Nc2nnnn2C)ccc(C(F)F)c1CS(C)(=O)=O [Example 1-109]	100	100	100	80	90	100	100	–	–	–	–	–	–	–	–	–
CCCn1nnnc1NC(=O)c1ccc(C(F)F)c(CSC)c1Cl [Example 3-320]	100	100	100	100	90	90	100	–	–	–	–	–	–	–	–	–
Cn1nnnc1NC(=O)c1ccc(Cl)c(CS(C)(=O)=O)c1Cl [Example 1-561]	100	100	100	90	100	100	100	–	–	–	–	–	–	–	–	–
CCS(=O)(=O)Cc1c(C(F)(F)F)ccc(C(=O)Nc2nnnn2C)c1Cl [Example 1-301]	100	90	100	100	100	100	100	–	–	–	–	–	–	–	–	–
CSCc1c(C(F)(F)F)ccc(C(=O)Nc2nnnn2C)c1F [Example 1-242]	100	100	100	100	80	100	100	–	–	–	–	–	–	–	–	–
CCCn1nnnc1NC(=O)c1ccc(C(F)(F)F)c(CSC)c1Cl [Example 3-296]	100	100	100	100	90	90	100	–	–	–	–	–	–	–	–	–
COc1c(C(=O)Nc2nnnn2C)ccc(C(F)(F)F)c1CSC [Example 1-134]	100	100	100	100	80	100	100	–	–	–	–	–	90	90	30	90
CCCn1nnnc1NC(=O)c1ccc(C(F)(F)F)c(CSCC)c1Br [Example 3-383]	100	90	100	100	90	90	100	–	–	–	–	–	–	–	–	–
CCn1nnnc1NC(=O)c1ccc(C(F)(F)F)c(CSC)c1Br [Example 2-380]	–	–	100	100	90	–	100	100	90	90	–	–	–	–	–	–
CCCn1nnnc1NC(=O)c1ccc(C(F)(F)F)c(C[S+](C)[O-])c1Br (centres unmarked) [Example 3-381]	–	–	100	100	80	–	90	100	90	100	–	–	–	–	–	–
CCCn1nnnc1NC(=O)c1ccc(C(F)(F)F)c(CS(=O)(=O)CC)c1Br [Example 3-385]	100	100	100	100	80	90	100	–	–	–	–	–	–	–	–	–
CCSCc1c(C(F)(F)F)ccc(C(=O)Nc2nnnn2C)c1C [Example 1-86]	–	–	100	100	100	–	100	100	80	90	–	–	–	–	–	–
C=CCSCc1c(C(F)(F)F)ccc(C(=O)Nc2nnnn2C)c1Cl [Example 1-308]	–	–	100	100	100	–	100	100	100	100	–	–	–	–	–	–
CCSCc1c(C(F)F)ccc(C(=O)Nc2nnnn2C)c1SCC [Example 1-191]	100	100	100	100	100	80	100	–	–	–	–	–	–	–	–	–
